{
  "source": "patent US6274557A",
  "about": "“Inhibition of nitric oxide synthase by amino acids and dipeptides” (Northwestern University, priority 1999, dated 2001)",
  "key": {"[1]": {"system": "nitric oxide synthases (nNOS, iNOS, eNOS)", "settings": "literature, cited from earlier work; for isoform selectivity factor: methyl: eNOS and nNOS over iNOS, ethyl: iNOS over nNOS and eNOS"}, "[2]": {"target": "neuronal nitric oxide synthase (nNOS) from bovine brain (Bos taurus, UniProt A0A3Q1M6M2)", "sequence (A0A3Q1M6M2 entry or part of it)": "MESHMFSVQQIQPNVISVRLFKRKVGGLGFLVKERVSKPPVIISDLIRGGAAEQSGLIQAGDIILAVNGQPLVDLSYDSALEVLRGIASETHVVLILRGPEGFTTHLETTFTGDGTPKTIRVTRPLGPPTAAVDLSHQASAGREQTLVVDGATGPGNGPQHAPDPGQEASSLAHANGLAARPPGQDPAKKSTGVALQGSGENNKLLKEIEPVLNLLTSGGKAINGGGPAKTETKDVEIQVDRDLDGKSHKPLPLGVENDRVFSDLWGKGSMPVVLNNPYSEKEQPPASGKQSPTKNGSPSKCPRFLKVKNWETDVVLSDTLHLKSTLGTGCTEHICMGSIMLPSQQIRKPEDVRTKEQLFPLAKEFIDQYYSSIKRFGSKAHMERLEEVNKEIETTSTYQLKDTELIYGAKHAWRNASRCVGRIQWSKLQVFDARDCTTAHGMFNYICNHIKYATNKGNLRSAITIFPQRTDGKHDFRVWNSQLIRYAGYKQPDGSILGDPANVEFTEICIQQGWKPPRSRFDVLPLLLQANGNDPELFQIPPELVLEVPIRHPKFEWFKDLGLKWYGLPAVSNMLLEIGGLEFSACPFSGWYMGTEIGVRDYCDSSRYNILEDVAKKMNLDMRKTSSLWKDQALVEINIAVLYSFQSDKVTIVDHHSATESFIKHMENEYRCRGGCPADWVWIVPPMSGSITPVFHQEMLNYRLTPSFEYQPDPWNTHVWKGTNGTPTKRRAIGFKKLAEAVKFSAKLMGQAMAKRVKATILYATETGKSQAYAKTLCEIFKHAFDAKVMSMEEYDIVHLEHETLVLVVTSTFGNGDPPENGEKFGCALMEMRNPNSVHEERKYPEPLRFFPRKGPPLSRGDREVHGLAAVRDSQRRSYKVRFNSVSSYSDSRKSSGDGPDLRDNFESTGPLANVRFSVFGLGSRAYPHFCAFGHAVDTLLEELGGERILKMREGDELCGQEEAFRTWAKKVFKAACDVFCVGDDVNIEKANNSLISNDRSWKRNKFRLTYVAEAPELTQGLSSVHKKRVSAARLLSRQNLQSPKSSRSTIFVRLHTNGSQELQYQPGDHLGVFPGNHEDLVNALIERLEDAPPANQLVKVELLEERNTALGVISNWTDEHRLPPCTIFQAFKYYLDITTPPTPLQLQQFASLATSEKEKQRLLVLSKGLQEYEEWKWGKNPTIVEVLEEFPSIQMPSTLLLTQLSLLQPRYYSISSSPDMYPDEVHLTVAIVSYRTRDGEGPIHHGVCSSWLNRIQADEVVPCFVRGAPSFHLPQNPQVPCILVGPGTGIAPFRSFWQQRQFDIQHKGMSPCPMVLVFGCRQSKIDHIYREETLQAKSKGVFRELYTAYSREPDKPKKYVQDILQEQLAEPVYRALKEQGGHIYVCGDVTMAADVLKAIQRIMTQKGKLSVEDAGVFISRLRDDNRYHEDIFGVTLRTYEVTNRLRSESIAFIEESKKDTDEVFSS", "assay": "Hemoglobin capture assay of nitric oxide formation, nNOS", "experimental": "(§1) Nitric oxide formation was measured by using the hemoglobin capture assay. […] The production of nitric oxide by eNOS was measured as described. […] All assays were in a final volume of 600 μL and were initiated with enzyme.\n(§2) The reversible inhibition of NOS by the dipeptide analogs was studied under initial rate conditions with the hemoglobin assay as described above. […] With various L-arginine and inhibitor concentrations."}, "[3]": {"target": "recombinant murine macrophage nitric oxide synthase (iNOS) (Mus musculus, UniProt P29477)", "assay": "Hemoglobin capture assay of nitric oxide formation, iNOS", "experimental": "as §1, §2"}, "[4]": {"target": "T1, recombinant bovine endothelial nitric oxide synthase (eNOS) (Bos taurus, UniProt P29473)", "T1 construct": "made in house; host or cells: E. coli", "assay": "Hemoglobin capture assay of nitric oxide formation, eNOS", "format": "biochemical", "experimental": "as §1, §2"}, "[5]": {"settings": "N-substituted L-arginines, ratio of the inverse of the Ki values (IC50 for methyl, ethyl)"}},
  "note": "Like-named read-outs stand apart in the source and are kept apart here.",
  "data": [
    {"smiles": "CC1CCN=C(N)S1", "note": "(stereo not drawn) [2-Amino-5,6-dihydro-6-methyl-4H-1,3-thiazine]", "values": [
      {"measurement": "selectivity in favor of iNOS", "setting": "[1]", "result": "10-40 fold"}
    ]},
    {"smiles": "N=C(N)NN", "note": "[Aminoguanidine]", "values": [
      {"measurement": "selectivity for iNOS over eNOS", "setting": "[1]", "result": 500, "unit": "fold"},
      {"measurement": "selectivity for iNOS over nNOS", "setting": "[1]", "result": 50, "unit": "fold"}
    ]},
    {"smiles": "CC(=N)NCCCC[C@H](N)C(=O)O", "note": "[L-N^6-(1-Iminoethyl)lysine]", "values": [
      {"measurement": "selectivity for iNOS over eNOS", "setting": "[1]", "result": 30, "unit": "fold"},
      {"measurement": "selectivity for iNOS over nNOS", "setting": "[1]", "result": 13, "unit": "fold"}
    ]},
    {"smiles": "NC(=NCCC[C@H](N)C(=O)O)N[N+](=O)[O-]", "note": "[N-nitro-L-arginine, N^ω --Nitro-L-arginine, reference compound]", "values": [
      {"measurement": "Ki", "setting": "[2]; read-out: KI (time-dependent inhibition), with nNOS", "result": 9.3, "unit": "µM"},
      {"measurement": "kinact", "setting": "[2]; with nNOS", "result": 0.132, "unit": "min⁻¹"},
      {"measurement": "selectivity for nNOS over iNOS", "setting": "[1]", "result": "about 300 fold"}
    ]},
    {"smiles": "CSC(N)=NCCC[C@H](N)C(=O)O", "note": "[S-Methyl-L-thiocitrulline]", "values": [
      {"measurement": "selectivity for nNOS than eNOS", "setting": "[1]", "result": 10, "unit": "fold"}
    ]},
    {"smiles": "CCSC(N)=NCCC[C@H](N)C(=O)O", "note": "[S-ethyl-L-thiocitrulline]", "values": [
      {"measurement": "selectivity for nNOS than eNOS", "setting": "[1]", "result": 50, "unit": "fold"}
    ]},
    {"smiles": "CCSC(=N)N", "note": "[S-ethylisothiourea]", "values": [
      {"measurement": "selectivity in favor of iNOS", "setting": "[1]", "result": "10-40 fold"}
    ]},
    {"smiles": "CCNC(=N)NCCC[C@H](N)C(=O)O", "note": "[ethyl, N^ω -ethyl-L-arginine, reference compound]", "values": [
      {"measurement": "IC50", "setting": "[2]", "result": 16, "unit": "µM"},
      {"measurement": "Selectivity nNOS/eNOS", "setting": "[2]; [5]", "result": 0.6},
      {"measurement": "Selectivity nNOS/iNOS", "setting": "[2]; [5]", "result": 0.4},
      {"measurement": "IC50", "setting": "[3]", "result": 6.1, "unit": "µM"},
      {"measurement": "isoform selectivity factor", "setting": "[1]; listed as N^ω --ethyl-L-arginine", "result": "~2"},
      {"measurement": "isoform selectivity factor", "setting": "[1]; listed as N^ω -ethyl-L-arginine", "result": "about 2"},
      {"measurement": "IC50", "setting": "[4]", "result": 9.5, "unit": "µM"}
    ]},
    {"smiles": "CCCNC(=N)NCCC[C@H](N)C(=O)O", "note": "[propyl, N^ω -Propyl-L-arginine]", "values": [
      {"measurement": "Ki", "setting": "[2]", "result": 0.057, "unit": "µM"},
      {"measurement": "type of reversible inhibition of nNOS", "setting": "[2]", "result": "competitive inhibitor"},
      {"measurement": "Ki", "setting": "[3]", "result": 180, "unit": "µM"},
      {"measurement": "type of reversible inhibition of iNOS", "setting": "[3]; Cornish-Bowden replots", "result": "competitive inhibitor"},
      {"measurement": "type of reversible inhibition of eNOS", "setting": "[4]; Cornish-Bowden replots", "result": "competitive inhibitor"},
      {"measurement": "Ki", "setting": "[4]; Table 1", "result": 8.5, "unit": "µM"}
    ]}
  ]
}
